The source of these data is PMC6493465 (Oncotarget, 2019).

The assay has as its system MV4-11 cells. Put plainly: Cell cycle analysis. The following applies: 24 hours, control 59.8%. Type of assay: cell-based, human. How it is done:
MV4-11 cells were seeded in 12-well plates (AGC Techno Glass Co. Ltd., Shizuoka, Japan) at a concentration of 2 × 10^5 cells/well and cultured overnight.
The cells were subsequently harvested and fixed in ice-cold 70% ethanol and maintained at 4°C. Following fixation, the cells were washed with phosphate-buffered saline (PBS) and were resuspended in Guava® Cell Cycle Reagent (Merck Millipore Corporation, Darmstadt, Germany). Cell cycle distribution was measured using a Guava® PCA microcytometer (Merck Millipore Corporation), and was analyzed in 5000 cells per sample using CytoSoft™ software (Merck Millipore Corporation). The mean percentages of cells in sub-G1, G1, S, and G2/M phases were derived from four independent assays.

SMILES strings stand for the structures.

Consider `CCc1nc(C(N)=O)c(Nc2ccc(N3CCC(N4CCN(C)CC4)CC3)c(OC)c2)nc1NC1CCOCC1` [Gilteritinib], for which the “mean proportion of MV4-11 cells in G1 phase” value runs as follows: (gilteritinib 3 nM) 69.0%; (gilteritinib 10 nM) 70.7%.
